Measurements from patent US12577228B2, “Dihydrocyclopenta-isoquinoline-sulfonamide derivatives compounds” (UCB Biopharma SRL, priority 2019, dated 2026).

molecular target: T1, IgE-Tb / soluble IgE receptor FcεRIα with a Y131A mutation (Homo sapiens, UniProt P01854, N146Q/N252Q); experiment: in vitro FRET assay: binding of IgE-Tb to receptor FcεRIα-Y131A-AF488 and its inhibition by compounds; conditions: 5 nM IgE-Tb, 25 nM FcεRIα-Y131A-AF488, 2 hours at room temperature; read-out: FRET IC50 range
T1 construct: fused on or other part: Terbium chelate (LanthaScreen amine-reactive) on IgE-Fc; Alexa Fluor 488 hydrazide on the oxidised glycans of sFcεRIα; Both are labels and no part of the key
T1 sequence (P01854 104-427 N146Q/N252Q): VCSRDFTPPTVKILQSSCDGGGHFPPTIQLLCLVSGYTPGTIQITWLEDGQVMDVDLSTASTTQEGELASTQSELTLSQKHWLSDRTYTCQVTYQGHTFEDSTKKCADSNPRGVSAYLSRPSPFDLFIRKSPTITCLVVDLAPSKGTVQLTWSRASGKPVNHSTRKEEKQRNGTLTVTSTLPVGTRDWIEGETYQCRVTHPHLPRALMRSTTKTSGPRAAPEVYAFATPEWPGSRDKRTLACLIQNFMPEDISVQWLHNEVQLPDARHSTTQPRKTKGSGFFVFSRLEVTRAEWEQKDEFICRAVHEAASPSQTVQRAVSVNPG
T1 sequence (P12319 26-201 Y156A partner): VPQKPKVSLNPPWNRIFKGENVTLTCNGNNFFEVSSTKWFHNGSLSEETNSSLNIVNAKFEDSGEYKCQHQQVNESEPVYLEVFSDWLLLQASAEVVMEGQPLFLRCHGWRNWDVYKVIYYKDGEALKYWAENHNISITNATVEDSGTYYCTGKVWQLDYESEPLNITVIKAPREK

Structure (SMILES)	IC50
CC(C)(F)CNS(=O)(=O)c1c2c(cc3cnc(C4CC4)cc13)CC(n1ccnc1NCC1CC1)C2 (stereo not shown) [Example 58, 3-cyclopropyl-7-[2-(cyclopropylmethylamino)imidazol-1-yl]-N-(2-fluoro-2-methylpropyl)-7,8-dihydro-6H-cyclopenta[g]isoquinoline-5-sulfonamide]	0.1 to 2 µM
CC(C)(F)CNS(=O)(=O)c1c2c(cc3c(F)nc(C4CC4)cc13)CC(Nc1ccc(C(N)=O)nc1)C2 (stereo not shown) [Example 23, 5-[[3-cyclopropyl-1-fluoro-5-[(2-fluoro-2-methyl-propyl)sulfamoyl]-7,8-dihydro-6H-cyclopenta[g]isoquinolin-7-yl]amino]pyridine-2-carboxamide]	0.01 to 0.05 µM
COc1ccc(NC2Cc3cc4cnc(C5CC5)cc4c(S(=O)(=O)NCC(C)(C)F)c3C2)nn1 (stereo not shown) [Example 28, 3-cyclopropyl-N-(2-fluoro-2-methylpropyl)-7-[(6-methoxypyridazin-3-yl)amino]-7,8-dihydro-6H-cyclopenta[g]isoquinoline-5-sulfonamide]	0.01 to 0.05 µM
CC(C)(F)CNS(=O)(=O)c1c2c(cc3cnc(C4CC4)cc13)CC(CO)(Nc1nncn1-c1cccnc1)C2 (stereo not shown) [Example 50, 3-cyclopropyl-N-(2-fluoro-2-methylpropyl)-7-(hydroxymethyl)-7-[(4-pyridin-3-yl-1,2,4-triazol-3-yl)amino]-6,8-dihydrocyclopenta[g]isoquinoline-5-sulfonamide]	0.1 to 2 µM
CC(C)(F)CNS(=O)(=O)c1c2c(cc3cnc(C4CC4)cc13)C[C@@H](NC(=O)c1ccc3[nH]nnc3c1)C2 [Example 34, N-[(7R)-3-cyclopropyl-5-[(2-fluoro-2-methylpropyl)sulfamoyl]-7,8-dihydro-6H-cyclopenta[g]isoquinolin-7-yl]-1H-benzotriazole-5-carboxamide]	0.01 to 0.05 µM
CC(C)NC(=O)c1ccc(N[C@@H]2Cc3cc4cnc(C5CC5)cc4c(S(=O)(=O)NCC(C)(C)F)c3C2)cn1 [Example 77, 5-[[(7R)-3-cyclopropyl-5-[(2-fluoro-2-methylpropyl)sulfamoyl]-7,8-dihydro-6H-cyclopenta[g]isoquinolin-7-yl]amino]-N-propan-2-ylpyridine-2-carboxamide]	0.01 to 0.05 µM
Cn1ccc(Oc2ccncc2N[C@@H]2Cc3cc4cnc(C5CC5)cc4c(S(=O)(=O)NCC(C)(C)F)c3C2)n1 [Example 128, (7R)-3-cyclopropyl-N-(2-fluoro-2-methylpropyl)-7-[[4-(1-methylpyrazol-3-yl)oxypyridin-3-yl]amino]-7,8-dihydro-6H-cyclopenta[g]isoquinoline-5-sulfonamide]	0.05 to 0.1 µM
Cc1nnc(-c2ccc(N[C@@H]3Cc4cc5cnc(C6CC6)cc5c(S(=O)(=O)NCC(C)(C)F)c4C3)cn2)o1 [Example 37, (7R)-3-cyclopropyl-N-(2-fluoro-2-methylpropyl)-7-[[6-(5-methyl-1,3,4-oxadiazol-2-yl)pyridin-3-yl]amino]-7,8-dihydro-6H-cyclopenta[g]isoquinoline-5-sulfonamide]	0.001 to 0.01 µM
CC(C)(C)CNC(=O)C1Cc2cc3nnc(C4CC4)cc3c(S(=O)(=O)NCC(C)(C)F)c2C1 (stereo not shown) [Example 113, 3-cyclopropyl-N-(2,2-dimethylpropyl)-5-[(2-fluoro-2-methylpropyl)sulfamoyl]-7,8-dihydro-6H-cyclopenta[g]cinnoline-7-carboxamide]	0.1 to 2 µM
Cc1nc(C2CC2)cc2c(S(=O)(=O)NCC(C)C)c3c(cc12)CCC3 [Example 67, 3-cyclopropyl-1-methyl-N-(2-methylpropyl)-7,8-dihydro-6H-cyclopenta[g]isoquinoline-5-sulfonamide]	0.1 to 2 µM
CC(C)(F)CNS(=O)(=O)c1c2c(cc3cnc(C4CC4)cc13)CC(Nc1cncnc1NCC1CC1)C2 (stereo not shown) [Example 19, 3-cyclopropyl-7-[[4-(cyclopropylmethylamino)pyrimidin-5-yl]amino]-N-(2-fluoro-2-methylpropyl)-7,8-dihydro-6H-cyclopenta[g]isoquinoline-5-sulfonamide]	0.01 to 0.05 µM
CCNC(=O)N1Cc2cc3cnc(C4CC4)cc3c(S(=O)(=O)NCC(C)C)c2C1 [Example 100, 7-cyclopropyl-N-ethyl-9-(2-methylpropylsulfamoyl)-1,3-dihydropyrrolo[3,4-g]isoquinoline-2-carboxamide]	0.1 to 2 µM
CC(C)CNS(=O)(=O)c1c2c(c(N)c3cnc(C4CC4)cc13)CCC2 [Example 21, 9-amino-3-cyclopropyl-N-(2-methylpropyl)-7,8-dihydro-6H-cyclopenta[g]isoquinoline-5-sulfonamide]	0.05 to 0.1 µM
COC(=O)c1ccc(NC2Cc3cc4c(F)nc(C5CC5)cc4c(S(=O)(=O)NCC(C)(C)F)c3C2)cn1 (stereo not shown) [Example 24, methyl 5-[[3-cyclopropyl-1-fluoro-5-[(2-fluoro-2-methyl-propyl)sulfamoyl]-7,8-dihydro-6H-cyclopenta[g]isoquinolin-7-yl]amino]pyridine-2-carboxylate]	0.01 to 0.05 µM
CC1(CNS(=O)(=O)c2c3c(cc4cnc(C5CC5)cc24)CC(C(=O)Nc2cccnc2)C3)COC1 (stereo not shown) [Example 9, 3-cyclopropyl-5-[(3-methyloxetan-3-yl)methylsulfamoyl]-N-pyridin-3-yl-7,8-dihydro-6H-cyclopenta[g]isoquinoline-7-carboxamide]	0.1 to 2 µM
CC(C)(F)CNS(=O)(=O)c1c2c(cc3cnc(C4CC4)cc13)CC(NC1=CC(=O)OC1)C2 (stereo not shown) [Example 142, 3-cyclopropyl-N-(2-fluoro-2-methylpropyl)-7-[(5-oxo-2H-furan-3-yl)amino]-7,8-dihydro-6H-cyclopenta[g]isoquinoline-5-sulfonamide]	0.1 to 2 µM
Cc1nc(-c2ccc(N[C@@H]3Cc4cc5cnc(C6CC6)cc5c(S(=O)(=O)NCC(C)(C)F)c4C3)cn2)no1 [Example 31, (7R)-3-cyclopropyl-N-(2-fluoro-2-methylpropyl)-7-[[6-(5-methyl-1,2,4-oxadiazol-3-yl)pyridin-3-yl]amino]-7,8-dihydro-6H-cyclopenta[g]isoquinoline-5-sulfonamide]	0.001 to 0.01 µM
CC(C)CNS(=O)(=O)c1c2c(cc3cnc(C4CC4)cc13)CCC2O (stereo not shown) [Example 48, 3-cyclopropyl-6-hydroxy-N-(2-methylpropyl)-7,8-dihydro-6H-cyclopenta[g]isoquinoline-5-sulfonamide]	0.1 to 2 µM
Cc1nnc(-c2ncc(N[C@@H]3Cc4cc5cnc(C6CC6)cc5c(S(=O)(=O)NCC(C)(C)F)c4C3)cn2)o1 [Example 129, (7R)-3-cyclopropyl-N-(2-fluoro-2-methylpropyl)-7-[[2-(5-methyl-1,3,4-oxadiazol-2-yl)pyrimidin-5-yl]amino]-7,8-dihydro-6H-cyclopenta[g]isoquinoline-5-sulfonamide]	0.01 to 0.05 µM
